Assay results as given in patent publication US20220370642A1, “METHODS OF DETECTING NEUROLOGICAL DISORDERS VIA BINDING TO PHOSPHORYLATED TAU PROTEIN” (Amydis, Inc., priority 2019, published 2022).

Tested on: hyperphosphorylated 3RTau
Assay: Tau protein retinal staining: colocalization of Compound 5 with 3RTau antibody in retinal sections (confocal fluorescence)
Type: binding, mice
Details: for Pearson correlation coefficient (PCC) of colocalization with 3RTau antibody: Image J analysis, -1=complete anti-colocalization, 0=non colocalization, 1=complete colocalization
Procedure: Retinas of different age of three-repeat tau (“3RTau”) mice (3 months, 6 months and 12 months) were mounted on slides. The retina were washed with PBS 2 times for 5 minutes. A solution of 98% formic acid was added—5 minutes for antigen retrieval. The sampled were washed with distilled water—2 times for 5 minutes. The samples were equilibrated in 1×PBS for 15 minutes, then blocked with 10% goat/donkey serum in 1×PBST (depending on antibodies) for 1 hour. The samples were then incubated with three-repeat tau antibody in 10% goat serum in 1×PBST at 4 degree C. overnight, then rinsed with 1×PBST 3 times for 5 minutes each. Samples were incubated with secondary antibody (Alexa Fluor 568 Anti mouse) in 1×PBST for 1 hour, then covered with foil, then rinsed with 1×PBST 3 times for 5 minutes each. Samples were stained with Compound 5 working solution for 30 minutes at room temperature, covered in foil, and washed with 1×PBS 3 times for 5 minutes each. Samples were stained with DAPI (300 nM or 100 ng/mL) in dark for 10 minutes, then tissues were washed 3×10 minutes with PBS. Antifade DAKO mounting medium was added, and coverslip and kept under foil until imaging. Images were obtained using a Leica confocal microscope.
Fluorescent imaging study was conducted on a Leica DMI 4000B microscope (Leica, Germany) equipped with a TCS SPE camera and Leica 10, 20 and 40× objectives. The following lasers were used to visualize fluorescent probes pertaining to DAPI (blue, nuclear stain), Compound 5 (green) and 3RTau (red): 408, 488 and 568 nm. Z-stacked images were taken at 40× at 0.5 μm increments to visualize the entire thickness of the tissue.

`N#C/C(=C\c1ccc2cc(N3CCCCC3)ccc2c1)C(=O)NCC(O)CO` (stereo not drawn) [Compound 5] was tested, and the “Pearson correlation coefficient (PCC) of colocalization with 3RTau antibody” value (3RTau mouse retinal section) was 0.67, the “colocalization with 3Rtau immunoreactivity in retina (immunostaining)” value (3RTau transgenic mice retina, 3, 6 and 12 months) was “colocalizes” and the “Pearson correlation coefficient (PCC) of colocalization with 3RTau antibody” value (control mouse retinal section) was 0.04.
